In one experiment the test system is hESC. The experiment can be described thus: Chromatin mobility by time-lapse confocal microscopy of GFP-H2B transfected hESC. The experiment is classed as cell-based, human. Conditions: hESC transfected with GFP-H2B; data not shown. The method, then: Chromatin movement was further analyzed in hESC transfected with the fluorescent histone GFP-H2B (FIG. 4). Single confocal slices at 0.4 μm spacing (FIG. 4A) show density variations, including low-density voids (arrow in FIG. 4A, 0.4 μm). The movement of cell-specific bright chromatin densities was analyzed by overlaying images at 0, 5 and 10 min, assigned to the blue, green and red channels respectively (FIGS. 4B-F) and by vector analysis where movement of bright spots was traced with a yellow line at 1 min intervals and red arrows were placed at the last position of the spot (FIG. 4G). Different kinds of nuclear movement were detected including internal mixing of chromatin, indicated by movement of bright chromatin domains without envelope deformation (pluripotent hESC, FIG. 4B), deformation of the envelope and chromatin (pluripotent hESC, FIG. 4C), and multidirectional streaming of chromatin (2 day differentiated hESC, FIG. 4D). Long-range coordination of chromatin movement was infrequent in hESC and prevalent, albeit at slower speeds, in differentiated cells. An increase in coherence length was most noticeable in 5-week differentiated hESC (FIG. 4E). In contrast, endothelial cells show small amplitude, sub-em tethered stochastic movement (FIG. 4F) as reported previously for somatic cells (Marshall, Straight et al. 1997). […]

The next experiment relates to Oct4 promoter. Conditions: combined TSA and 5Aza 2′ deoxycytidine treatment of TE; cited from earlier work.
The subject of a further experiment is HDAC1. Put plainly: HDAC1 immunostaining (confocal microscopy) in HeLa cells. Conditions: FIG. 15.

As for `C=C1[C@@H](C)[C@H]2[C@H](Cc3ccccc3)NC(=O)[C@]23[C@H](OC(C)=O)/C=C/[C@@](C)(O)C(=O)[C@@H](C)C/C=C/[C@H]3[C@@H]1O` [cytochalasin D], in the experiment on hESC, the “effect on chromatin mobility” value is given as “slight acceleration of chromatin mobility”.
Turning to `CC(/C=C/C(=O)NO)=C\[C@@H](C)C(=O)c1ccc(N(C)C)cc1` [TSA], in the experiment on Oct4 promoter, the Oct4 expression result is recorded as “induces Oct4 expression” and the Oct4 promoter methylation result is “hypomethylates the Oct4 promoter”. Moreover, in the experiment with HDAC1, the HDAC1 staining result is “complete absence of HDAC1 staining”.
Consider `COC(=O)Nc1nc2ccc(C(=O)c3cccs3)cc2[nH]1` [nocodazole], for which the “effect on chromatin mobility” value in the experiment with hESC is “no effect on chromatin mobility”.
As to `Nc1ncn([C@H]2C[C@H](O)[C@@H](CO)O2)c(=O)n1` [5Aza 2′ deoxycytidine], in the experiment on Oct4 promoter, the Oct4 expression entry is “induces Oct4 expression” and the Oct4 promoter methylation entry is listed as “hypomethylates the Oct4 promoter”.

(Values after patent US20100002929A1, “Image-based methods for measuring global nuclear patterns as epigenetic markers of cell differentiation” (The Charles Stark Draper Laboratory, Inc., priority 2004, published 2010).)
